Laboratory results reported in US20210145771A1, “N-(3-(2-(4-CHLOROPHENOXY)ACETAMIDO)BICYCLO[1.1.1] PENTAN-1-YL)-2-CYCLOBUTANE-1- CARBOXAMIDE DERIVATIVES AND RELATED COMPOUNDS AS ATF4 INHIBITORS FOR TREATING CANCER AND OTHER DISEASES” (GlaxoSmithKline Intellectual Property Development Limited, priority 2017, published 2021).
Where a name gives a salt, the structure may show the parent alone.

tested on: ATF4 pathway; test: ATF4 Cell Based Assay (ATF4 reporter assay, NanoLuc luciferase); settings: SH-SY5Y-ATF4-NanoLuc cells challenged with Thapsigargin for 14-18 hours; average of two or more experimental runs; read-out: average ATF4 pathway inhibitory activity (IC50)
From the text: The ATF4 reporter assay measures the effect of Thapsigargin induced cellular stress on ATF4 expression. For this reporter assay, a stable cell line was created by transfecting SH-SY5Y cells with a plasmid containing the NanoLuc® luciferase gene fused to the 5′-UTR of ATF4, under the control of the CMV promoter. The ATF4 5′-UTR contains two open reading frames which mediate the cellular stress-dependent translation of the reporter gene. Clones stably expressing the reporter construct were isolated and selected based on the luminescence response to thapsigargin and inhibition of this signal by test compounds. Briefly, SH-SY5Y-ATF4-NanoLuc cells were challenged with Thapsigargin for 14-18 hours to determine the stress effect with or without test compounds.
Cells were propagated in growth media consisting of 90% DMEM F12 (InVitrogen #11320-033), 10% Fetal Bovine Serum (Gibco #10438-026), 5 mM Glutamax (Gibco #35050-061), 5 mM Hepes, (Gibco #15630-080), and 0.5 mg/ml Geneticin (Gibco #10131-027). Cells were prepared for the assay by removing all media from cells, washing the plated cells with phosphate buffered saline, and detached by adding a solution comprised of 10% Tryple express solution (InVitrogen12604-021) and 90% enzyme-free cell dissociation buffer HANKS base (Gibco 13150-016). The trypsin was deactivated by adding assay media comprised of 90% phenol-red free DMEM F12 (InVitrogen, 11039), 10% Fetal Bovine Serum (Gibco #10438-026), (5 mM Glutamax (Gibco #35050-061), 5 mM Hepes, (Gibco #15630-080), and 0.5 mg/ml Geneticin (Gibco #10131-027). Suspended cells were spun down at 300 g for 5 min, the supernatant was removed and the cell pellet was suspended in warm media (30-37° C.) comprised as above but without 10% Fetal Bovine Serum to a concentration of 1e6 cells/ml.
Assay plates were prepared by adding 250 nL of compound stock solution in 100% DMSO to each well, followed by dispensing 20 microliters/well cell suspension to deliver 15-20 k cell/well. Cells were incubated for 1 hour at 37° C. […]
The measurement of luciferase produced by the ATF4 constructs was measured as follows. Aliquots of the Nano-Glo reagent (Nano-Glo® Luciferase Assay Substrate, Promega, N113, Nano-Glo® Luciferase Assay Buffer, Promega, N112 (parts of Nano-Glo® Luciferase Assay System, N1150) were brought to room temperature, the substrate and buffer were mixed according to manufacturer's instructions. The cell plates were equilibrated to room temperature. 25 microliters/well of the mixed Nano-Glo reagent were dispensed into assay wells and pulse spun to settle contents and the plate was sealed with film. The plates were incubated at room temperature for 1 hour before detecting luminescence on an EnVision® plate reader.

SMILES	IC50
Cc1ccc(OCC(=O)NC23CC(NC(=O)COC4(C)CC4)(C2)C3)cc1 [Example 20, 2-(1-methylcyclopropoxy)-N-(3-(2-(p-tolyloxy)acetamido)bicyclo[1.1.1]pentan-1-yl)acetamide]	6.32 µM
O=C(COc1ccc(Cl)cc1)NC12CC(NC(=O)C3CCCO3)(C1)C2 (stereo not shown) [Example 32, N-(3-(2-(4-chlorophenoxy)acetamido)bicyclo[1.1.1]pentan-1-yl)tetrahydrofuranyl-2-carboxamide]	4.76 µM
O=C(COc1ccc(Cl)cc1)NC12CC(NC(=O)C3CCC3)(C1)C2 [Example 34, N-(3-(2-(4-chlorophenoxy)acetamido)bicyclo[1.1.1]pentan-1-yl)cyclobutanecarboxamide]	3.27 µM
O=C(COc1ccc(Cl)cc1)NC12CC(NC(=O)C3CCCN3)(C1)C2 (stereo not shown) [Example 53, N-(3-(2-(4-chlorophenoxy)acetamido)bicyclo[1.1.1]pentan-1-yl)pyrrolidinyl-2-carboxamide hydrochloride]	3.36 µM
